Laboratory results from US20230373934A1, “ANDROGEN RECEPTOR MODULATORS AND METHODS FOR THEIR USE” (ESSA Pharma, Inc., priority 2022, published 2023).
pIC50: −log10 of the molar value.

Biological target: T1, androgen receptor (AR) (Homo sapiens, UniProt P10275, T878A)
T1 construct: endogenous in cells; host or cells: LNCaP
T1 sequence (P10275 1-920 T878A): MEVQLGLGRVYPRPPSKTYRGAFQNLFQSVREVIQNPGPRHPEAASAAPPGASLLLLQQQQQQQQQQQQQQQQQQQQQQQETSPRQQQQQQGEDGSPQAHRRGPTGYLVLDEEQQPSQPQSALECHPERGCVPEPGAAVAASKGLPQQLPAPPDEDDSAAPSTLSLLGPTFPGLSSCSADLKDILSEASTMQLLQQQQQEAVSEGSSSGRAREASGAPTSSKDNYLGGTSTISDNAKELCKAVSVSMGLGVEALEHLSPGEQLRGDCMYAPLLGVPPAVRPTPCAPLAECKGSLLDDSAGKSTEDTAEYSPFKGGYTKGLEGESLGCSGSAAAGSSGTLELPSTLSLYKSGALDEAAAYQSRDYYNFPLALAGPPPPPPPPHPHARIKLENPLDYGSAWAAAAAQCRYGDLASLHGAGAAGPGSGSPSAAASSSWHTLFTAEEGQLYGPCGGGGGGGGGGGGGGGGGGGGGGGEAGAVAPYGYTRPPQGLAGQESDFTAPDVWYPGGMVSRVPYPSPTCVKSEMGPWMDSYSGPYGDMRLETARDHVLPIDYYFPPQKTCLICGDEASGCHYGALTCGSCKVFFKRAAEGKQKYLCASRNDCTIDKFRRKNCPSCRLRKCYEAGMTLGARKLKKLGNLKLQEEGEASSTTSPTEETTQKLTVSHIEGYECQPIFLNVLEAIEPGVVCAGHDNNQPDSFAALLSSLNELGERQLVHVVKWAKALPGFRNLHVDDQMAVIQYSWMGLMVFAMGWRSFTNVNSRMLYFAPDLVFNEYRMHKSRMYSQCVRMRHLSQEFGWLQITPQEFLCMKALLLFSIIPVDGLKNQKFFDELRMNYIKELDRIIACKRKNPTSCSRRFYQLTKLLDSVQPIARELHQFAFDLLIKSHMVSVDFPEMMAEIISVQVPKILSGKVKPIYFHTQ
Experiment: Androgen-induced PSA-luciferase assay, Luciferase Assay A (LNCaP transiently transfected with PSA (6.1 kb)-luciferase reporter)
Type: cell-based
Conditions: LNCaP cells, 1 h pretreatment, R1881 (1 nM) 24 h, read-out: PSA-Luc IC50 Range
Procedure: The PSA (6.1 kb)-luciferase reporter contains functional AREs (androgen response elements) to which AR binds in response to androgen to induce luciferase activity. LNCaP cells were transiently transfected with the PSA (6.1 kb)-luciferase reporter for 24 h, and then pretreated with vehicle (DMSO) or indicated concentration of representative compounds for one hour prior to the addition of synthetic androgen, R1881 (1 nM). After 24 h of incubation with R1881, the cells were harvested, and relative luciferase activities were determined (FIG. 1). To determine the IC50, treatments were normalized to vehicle control activity induced by R1881 (Table 2).
Luciferase Assay A: Cells were lysed using Passive Lysis Buffer (Promega) and then collected into V-bottom 96-well tissue culture plates. Lysates were centrifuged at 4° C. for 5 minutes at 3000 rpm. To measure luminescence of LNCaP cell lysates the Firefly Luciferase Assay System (Promega) was employed, according to manufacturer's protocol. Relative luminescence units (RLU) in cell lysates were detected for 10 seconds using Promega GloMax-Multi Detection Luminometer (Promega). Values were normalized to protein content. GraphPad Prism graphing software was used to calculate IC50 values. Luciferase Assay A was run for all compounds in Table 2 unless otherwise noted below.
Statistical analyses were performed using GraphPad Prism (Version 6.01 for Windows; La Jolla, CA, USA). Comparisons between treatment and control groups were compared using Two-Way ANOVA with post-hoc Dunnett's and Tukey's tests. Differences were considered statistically significant at P values less than 0.05.

Row | SMILES | pIC50
1 | CC(C)(c1ccc(OC[C@]2(F)C[C@H](NS(C)(=O)=O)C2)cc1)c1cc(Cl)c(OCCCl)c(C#N)c1 [Compound A26] | < 5.70
2 | CC(C)(c1ccc(N2CCOC(CCNS(C)(=O)=O)C2)cc1)c1cc(Cl)c(OCCCl)c(C#N)c1 (centres unmarked) [Compound A31] | < 5.70
3 | CS(=O)(=O)Nc1cnc2cc(-c3ccc(Oc4cc(Cl)c(OCCCl)c(C#N)c4)cn3)ccc2n1 [Compound A23] | < 5.70
4 | CC(C)(c1ccc(-c2ccc(N3CCCC(NS(C)(=O)=O)C3)nc2)cc1)c1cc(Cl)c(OCCCl)c(C#N)c1 (centres unmarked) [Compound A59] | 5.70 to 6.30
5 | CC(C)(c1ccc(OCc2cnc(NS(C)(=O)=O)nc2N)cc1)c1cc(Cl)c(OCCCl)c(C#N)c1 [Compound A118, N-(4-amino-5-((4-(2-(3-chloro-4-(2-chloroethoxy)-5-cyanophenyl)propan-2-yl)phenoxy)methyl)pyrimidin-2-yl)methanesulfonamide] | > 6.30
6 | CS(=O)(=O)Nc1nccc(COc2ccc(C(=O)c3cc(Cl)c(OCCCl)c(C#N)c3)cc2)n1 [Compound A128] | < 5.70
7 | CC(C)(c1ccc(-c2cnc(CNS(C)(=O)=O)cn2)cc1)c1cc(Cl)c(OCCCl)c(C#N)c1 [Compound A2] | 5.70 to 6.30
8 | CS(=O)(=O)NC1CN(c2ncc(-c3ccc(N(CC(F)(F)F)c4cc(Cl)c(OCCCl)c(C#N)c4)cc3)cn2)C1 [Compound A68] | > 6.30
9 | CC(C)(c1ccc(OCc2ccnc(NS(=O)(=O)c3ccsc3)n2)cc1)c1cc(Cl)c(OCCCl)c(C#N)c1 [Compound A101] | 5.70 to 6.30
10 | CC(C)(c1ccc(CCN2CC(NS(C)(=O)=O)C2)cc1)c1cc(Cl)c(OCCCl)c(C#N)c1 [Compound A20] | < 5.70
11 | COc1c(Cl)cc(N(CC(F)(F)F)c2ccc(-c3ccc4nc(NS(C)(=O)=O)cnc4c3)cc2)cc1C#N [Compound A67] | 5.70 to 6.30
12 | CC(C)(c1ccc(OCc2ccnc(NS(=O)(=O)c3cccnc3)n2)cc1)c1cc(Cl)c(OCCCl)c(C#N)c1 [Compound A109] | < 5.70
13 | CC(C)(c1ccc(-c2cnc(N3CC(CNS(C)(=O)=O)C3)nc2)cc1)c1cc(Cl)c(OCCCl)c(C#N)c1 [Compound A95] | 5.70 to 6.30
14 | CC(C)(c1ccc(N2CCC(N3CC(NS(C)(=O)=O)C3)CC2)cc1)c1cc(Cl)c(OCCCl)c(C#N)c1 [Compound A47] | < 5.70
15 | CC(C)(C)OC(=O)N1CCC(c2cc(COc3ccc(C(C)(C)c4cc(Cl)c(OCCCl)c(C#N)c4)cc3)nc(NS(C)(=O)=O)n2)CC1 [Compound A115] | 5.70 to 6.30
16 | CC(C)(c1ccc(OCc2cc(N3CCNCC3)nc(NS(C)(=O)=O)n2)cc1)c1cc(Cl)c(OCCCl)c(C#N)c1 [Compound A116] | < 5.70
17 | CC(C)(c1ccc(-c2ccc(N3CCN(S(C)(=O)=O)CC3)nc2)cc1)c1cc(Cl)c(OCCCl)c(C#N)c1 [Compound A60] | 5.70 to 6.30

Further lines, results first:

Row | pIC50 | SMILES
18 | < 5.70 | CN(c1ccc(OCc2ccnc(NS(C)(=O)=O)n2)cc1)c1cc(C#N)c(OCCCl)cn1 [Compound A171]
19 | 5.70 to 6.30 | CC(C)(c1ccc(OCc2ccnc(NS(C)(=O)=O)n2)cc1)c1cc(Cl)c(N2CCCC(F)(F)C2)c(C#N)c1 [Compound A152]
20 | 5.70 to 6.30 | C=Cc1c(Cl)cc(C(C)(C)c2ccc(OCc3ccnc(NS(C)(=O)=O)n3)cc2)cc1C#N [Compound A179]
21 | 5.70 to 6.30 | CS(=O)(=O)Nc1cnc2cc(-c3ccc(Oc4cc(F)c(OC5CC5)c(C#N)c4)cc3)ccc2n1 [Compound A154]
22 | 5.70 to 6.30 | CC(C)(c1ccc(OCc2ccnc(NS(C)(=O)=O)n2)cc1)c1cc(Cl)c(N2CC3CC2CO3)c(C#N)c1 (centres unmarked) [Compound A149]
23 | 5.70 to 6.30 | CC(C)(c1ccc(OCc2ccnc(NS(C)(=O)=O)n2)cc1)c1cc(Cl)c(OCCCOC(=O)Nc2ccccc2)c(C#N)c1 [Compound A139]
24 | 5.70 to 6.30 | CC(C)(c1ccc(OCc2ccnc(NS(C)(=O)=O)n2)cc1)c1cc(Cl)c(OCC2CC2)c(C#N)c1 [Compound A147]
25 | < 5.70 | CC(C)(c1ccc(OCc2ccnc(NS(C)(=O)=O)n2)cc1)c1cc(Cl)c(CCN2CC(O)C2)c(C#N)c1 [Compound A169]
26 | < 5.70 | CC(C)(c1ccc(OCc2ccnc(NS(C)(=O)=O)n2)cc1)c1cc(Cl)c(CCO)c(C#N)c1 [Compound A129]
